From US10336730B2, “Substituted glycine derived FXIA inhibitors” (BRISTOL-MYERS SQUIBB COMPANY, priority 2015, dated 2019)

Molecular target: T1, purified human Factor XIa (Homo sapiens, UniProt P03951)
T1 construct: purchased Haematologic Technologies
Assay: Factor XIa enzyme inhibition assay (chromogenic substrate S-2366), Ki
Format: biochemical
Settings: substrate S-2366, pH 7.4
Experimental: The effectiveness of compounds of the present invention as inhibitors of the coagulation Factors XIa, VIIa, IXa, Xa, XIIa, plasma kallikrein, thrombin, chemytrypsin or trypsin can be determined using a relevant purified serine protease, respectively, and an appropriate synthetic substrate. The rate of hydrolysis of the chromogenic or fluorogenic substrate by the relevant serine protease was measured both in the absence and presence of compounds of the present invention. […] A decrease in the rate of absorbance or fluorescence change in the presence of inhibitor is indicative of enzyme inhibition. Such methods are known to one skilled in the art. The results of this assay are expressed as the inhibitory constant, Ki.
Factor XIa determinations were made in 50 mM HEPES buffer at pH 7.4 containing 145 mM NaCl, 5 mM KCl, and 0.1% PEG 8000 (polyethylene glycol; JT Baker or Fisher Scientific). Determinations were made using purified human Factor XIa at a final concentration of […] (Haematologic Technologies) and the synthetic substrate S-2366 (pyroGlu-Pro-Arg-pNA; CHROMOGENIX® or AnaSpec) at a concentration of 0.0002-0.001 M.
Values of Ki were determined by allowing the protease to react with the substrate in the presence of the inhibitor. Reactions were allowed to go for periods of 20-180 minutes (depending on the protease) and the velocities (rate of absorbance or fluorescence change versus time) were measured. The following relationships were used to calculate Ki values: (Vmax*S)/(Km+S) (vo−vs)/vs=I/(Ki*(1+S/Km)) for a competitive inhibitor with one binding site; or vs/vo=A+(B−A)/(1+(IC50/(I)^n)); and Ki=IC50/(1+S/Km) for a competitive inhibitor where: […]

T1 sequence (P03951 388-625 limits assumed): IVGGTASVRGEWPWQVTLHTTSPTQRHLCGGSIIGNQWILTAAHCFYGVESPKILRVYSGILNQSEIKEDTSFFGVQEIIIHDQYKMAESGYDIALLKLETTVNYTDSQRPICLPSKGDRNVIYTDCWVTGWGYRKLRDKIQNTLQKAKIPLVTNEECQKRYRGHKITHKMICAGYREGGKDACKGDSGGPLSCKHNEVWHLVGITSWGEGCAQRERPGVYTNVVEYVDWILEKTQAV
T1 sequence (P03951 19-387 partner limits assumed): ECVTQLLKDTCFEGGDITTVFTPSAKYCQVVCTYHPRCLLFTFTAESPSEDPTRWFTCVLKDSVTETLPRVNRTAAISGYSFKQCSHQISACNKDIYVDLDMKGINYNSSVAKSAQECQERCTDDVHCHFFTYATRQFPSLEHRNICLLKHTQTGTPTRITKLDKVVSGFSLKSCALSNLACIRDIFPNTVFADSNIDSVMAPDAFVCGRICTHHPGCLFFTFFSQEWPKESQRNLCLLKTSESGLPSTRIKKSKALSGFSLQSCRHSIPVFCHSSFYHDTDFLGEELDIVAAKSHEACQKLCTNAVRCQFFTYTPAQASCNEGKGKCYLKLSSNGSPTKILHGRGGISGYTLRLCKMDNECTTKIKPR

Compound | Ki [nM]
O=C1NCCc2cc(NC(=O)[C@H](Cc3ccccc3)n3cnc(-c4cc(Cl)ccc4-n4cc(Cl)nn4)cc3=O)ccc21 [Example 97, (S)-2-(4-(5-chloro-2-(4-chloro-1H-1,2,3-triazol-1-yl)phenyl)-6-oxopyrimidin-1(6H)-yl)-N-(1-oxo-1,2,3,4-tetrahydroisoquinolin-6-yl)-3-phenylpropanamide] | 27.8
O=C(Nc1nnc(C2CCC2)[nH]1)[C@H](Cc1ccccc1)n1cnc(-c2cc(Cl)ccc2-n2cc(Cl)nn2)cc1=O [Example 110, (S)-2-(4-(5-chloro-2-(4-chloro-1H-1,2,3-triazol-1-yl)phenyl)-6-oxopyrimidin-1(6H)-yl)-N-(5-cyclobutyl-4H-1,2,4-triazol-3-yl)-3-phenylpropanamide] | 257
NC(=O)c1cccc(C[C@@H](C(=O)Nc2ccc(C(=O)O)cc2)N2CCC(c3cc(Cl)ccc3-n3ccnn3)=CC2=O)c1 [Compound 139, (S)-4-(3-(3-carbamoylphenyl)-2-(4-(5-chloro-2-(1H-1,2,3-triazol-1-yl)phenyl)-6-oxo-3,6-dihydropyridin-1(2H)-yl)propanamido)benzoic Acid] | 25.2
N#Cc1cccc(C[C@@H](C(=O)Nc2ccc(C(=O)O)cc2)N2CCC(c3cc(Cl)ccc3-n3ccnn3)=CC2=O)c1 [Compound 138, (S)-4-(2-(4-(5-chloro-2-(1H-1,2,3-triazol-1-yl)phenyl)-6-oxo-3,6-dihydropyridin-1(2H)-yl)-3-(3-cyanophenyl)propanamido) benzoic Acid] | 41.6
O=C1CCN(C(=O)[C@H](Cc2ccccc2)n2cnc(-c3cc(Cl)ccc3-n3cc(Cl)nn3)cc2=O)CCN1 [Example 55, (S)-1-(2-(4-(5-chloro-2-(4-chloro-1H-1,2,3-triazol-1-yl)phenyl)-6-oxopyrimidin-1(6H)-yl)-3-phenylpropanoyl)-1,4-diazepan-5-one] | 4940
O=C([C@H](Cc1ccccc1)n1cnc(-c2cc(Cl)ccc2-n2cc(Cl)nn2)cc1=O)N1CCC(N2C(=O)CCC2O)CC1 (mixture of isomers) [Example 49, 6-(5-chloro-2-(4-chloro-1H-1,2,3-triazol-1-yl)phenyl)-3-((2S)-1-(4-(2-hydroxy-5-oxopyrrolidin-1-yl)piperidin-1-yl)-1-oxo-3-phenylpropan-2-yl)pyrimidin-4(3H)-one] | 7370
O=C(Nc1noc2c(Cl)cccc12)[C@H](Cc1ccccc1)n1cnc(-c2cc(Cl)ccc2-n2cc(Cl)nn2)cc1=O [Example 115, (S)-2-(4-(5-chloro-2-(4-chloro-1H-1,2,3-triazol-1-yl)phenyl)-6-oxopyrimidin-1(6H)-yl)-N-(7-chlorobenzo[d]isoxazol-3-yl)-3-phenylpropanamide] | 305
O=C(O)c1ccc(NC(=O)[C@H](Cc2ccccc2)N2CCC(c3c(-n4ccnn4)ccc(Cl)c3F)=CC2=O)cc1 [Example 137, 4-[(2S)-2-{4-[3-chloro-2-fluoro-6-(1H-1,2,3-triazol-1-yl)phenyl]-6-oxo-1,2,3,6-tetrahydropyridin-1-yl}-3-phenylpropanamido]benzoic Acid] | 3.24
O=C(NCc1ccccn1)[C@H](Cc1ccccc1)n1cnc(-c2cc(Cl)ccc2-n2cc(Cl)nn2)cc1=O [Example 70, (S)-2-(4-(5-chloro-2-(4-chloro-1H-1,2,3-triazol-1-yl)phenyl)-6-oxopyrimidin-1(6H)-yl)-3-phenyl-N-(pyridin-2-ylmethyl)propanamide] | 931
O=C(NCCc1ncn[nH]1)[C@H](Cc1ccccc1)n1cnc(-c2cc(Cl)ccc2-n2cc(Cl)nn2)cc1=O [Example 82, (S)-N-(2-(1H-1,2,4-triazol-5-yl)ethyl)-2-(4-(5-chloro-2-(4-chloro-1H-1,2,3-triazol-1-yl)phenyl)-6-oxopyrimidin-1(6H)-yl)-3-phenylpropanamide] | 7370
O=C1OCC[C@@H]1NC(=O)[C@H](Cc1ccccc1)n1cnc(-c2cc(Cl)ccc2-n2cc(Cl)nn2)cc1=O [Example 101, (S)-2-(4-(5-chloro-2-(4-chloro-1H-1,2,3-triazol-1-yl)phenyl)-6-oxopyrimidin-1(6H)-yl)-N-((S)-2-oxotetrahydrofuran-3-yl)-3-phenylpropanamide] | 7810
O=C(Nc1ccc2c(c1)CS(=O)(=O)C2)[C@H](Cc1ccccc1)n1cnc(-c2cc(Cl)ccc2-n2cc(Cl)nn2)cc1=O [Example 28, (S)-2-(4-(5-chloro-2-(4-chloro-1H-1,2,3-triazol-1-yl)phenyl)-6-oxopyrimidin-1(6H)-yl)-N-(2,2-dioxido-1,3-dihydrobenzo[c]thiophen-5-yl)-3-phenylpropanamide] | 80.3
O=C(Nc1cnn(-c2ccccc2)c1)[C@H](Cc1ccccc1)n1cnc(-c2cc(Cl)ccc2-n2cc(Cl)nn2)cc1=O [Example 120, (S)-2-(4-(5-chloro-2-(4-chloro-1H-1,2,3-triazol-1-yl)phenyl)-6-oxopyrimidin-1(6H)-yl)-3-phenyl-N-(1-phenyl-1H-pyrazol-4-yl)propanamide] | 549
O=C(NC1CCc2ccccc21)[C@H](Cc1ccccc1)n1cnc(-c2cc(Cl)ccc2-n2cc(Cl)nn2)cc1=O (stereo partly drawn) [Example 127, (2S)-2-(4-(5-chloro-2-(4-chloro-1H-1,2,3-triazol-1-yl)phenyl)-6-oxopyrimidin-1(6H)-yl)-N-(2,3-dihydro-1H-inden-1-yl)-3-phenylpropanamide] | 837
Cn1ncc2cc(CNC(=O)[C@H](Cc3ccccc3)n3cnc(-c4cc(Cl)ccc4-n4cc(Cl)nn4)cc3=O)ccc21 [Example 79, (S)-2-(4-(5-chloro-2-(4-chloro-1H-1,2,3-triazol-1-yl)phenyl)-6-oxopyrimidin-1(6H)-yl)-N-((1-methyl-1H-indazol-5-yl)methyl)-3-phenylpropanamide] | 630
Cn1cc(NC(=O)[C@H](Cc2ccccc2)n2cnc(-c3cc(Cl)ccc3-n3cc(Cl)nn3)cc2=O)nn1 [Example 32, (S)-2-(4-(5-chloro-2-(4-chloro-1H-1,2,3-triazol-1-yl)phenyl)-6-oxopyrimidin-1(6H)-yl)-N-(1-methyl-1H-1,2,3-triazol-4-yl)-3-phenylpropanamide] | 341
O=C([C@H](Cc1ccccc1)n1cnc(-c2cc(Cl)ccc2-n2cc(Cl)nn2)cc1=O)N1CCOCC1 [Example 78, (S)-6-(5-chloro-2-(4-chloro-1H-1,2,3-triazol-1-yl)phenyl)-3-(1-morpholino-1-oxo-3-phenylpropan-2-yl)pyrimidin-4(3H)-one] | 4450
O=C(Nc1ccc2[nH]cnc2c1)[C@H](Cc1ccccc1)n1cnc(-c2cc(Cl)ccc2-n2cc(Cl)nn2)cc1=O [Example 46, (S)-N-(1H-benzo[d]imidazol-5-yl)-2-(4-(5-chloro-2-(4-chloro-1H-1,2,3-triazol-1-yl)phenyl)-6-oxopyrimidin-1(6H)-yl)-3-phenylpropanamide] | 8.3
O=C(Nc1ccc(-n2ccnc2)cc1)[C@H](Cc1ccccc1)n1cnc(-c2cc(Cl)ccc2-n2cc(Cl)nn2)cc1=O [Example 94, (S)-N-(4-(1H-imidazol-1-yl)phenyl)-2-(4-(5-chloro-2-(4-chloro-1H-1,2,3-triazol-1-yl)phenyl)-6-oxopyrimidin-1(6H)-yl)-3-phenylpropanamide] | 25.7
CCOC(=O)Cn1ccc(NC(=O)[C@H](Cc2ccccc2)n2cnc(-c3cc(Cl)ccc3-n3cc(Cl)nn3)cc2=O)n1 [Example 34, ethyl (S)-2-(3-(2-(4-(5-chloro-2-(4-chloro-1H-1,2,3-triazol-1-yl)phenyl)-6-oxopyrimidin-1(6H)-yl)-3-phenylpropanamido)-1H-pyrazol-1-yl)acetate] | 1660
O=C([C@H](Cc1ccccc1)n1cnc(-c2cc(Cl)ccc2-n2cc(Cl)nn2)cc1=O)N1CCc2ccccc2C1 [Example 71, (S)-6-(5-chloro-2-(4-chloro-1H-1,2,3-triazol-1-yl)phenyl)-3-(1-(3,4-dihydroisoquinolin-2(1H)-yl)-1-oxo-3-phenylpropan-2-yl)pyrimidin-4(3H)-one] | 790
CN(C)C1CCN(C(=O)[C@H](Cc2ccccc2)n2cnc(-c3cc(Cl)ccc3-n3cc(Cl)nn3)cc2=O)CC1 [Example 63, (S)-6-(5-chloro-2-(4-chloro-1H-1,2,3-triazol-1-yl)phenyl)-3-(1-(4-(dimethylamino)piperidin-1-yl)-1-oxo-3-phenylpropan-2-yl)pyrimidin-4(3H)-one] | 7500
Cn1ccc(CNC(=O)[C@H](Cc2ccccc2)n2cnc(-c3cc(Cl)ccc3-n3cc(Cl)nn3)cc2=O)n1 [Example 105, (S)-2-(4-(5-chloro-2-(4-chloro-1H-1,2,3-triazol-1-yl)phenyl)-6-oxopyrimidin-1(6H)-yl)-N-((1-methyl-1H-pyrazol-3-yl)methyl)-3-phenylpropanamide] | 2290
CC(=O)NC1CCN(C(=O)[C@H](Cc2ccccc2)n2cnc(-c3cc(Cl)ccc3-n3cc(Cl)nn3)cc2=O)CC1 [Example 102, (S)-N-(1-(2-(4-(5-chloro-2-(4-chloro-1H-1,2,3-triazol-1-yl)phenyl)-6-oxopyrimidin-1(6H)-yl)-3-phenylpropanoyl)piperidin-4-yl)acetamide] | 3050
